The target of the experiment is D(1A) dopamine receptor (Homo sapiens, UniProt P21728).
D(1A) dopamine receptor, sequence (P21728 whole entry): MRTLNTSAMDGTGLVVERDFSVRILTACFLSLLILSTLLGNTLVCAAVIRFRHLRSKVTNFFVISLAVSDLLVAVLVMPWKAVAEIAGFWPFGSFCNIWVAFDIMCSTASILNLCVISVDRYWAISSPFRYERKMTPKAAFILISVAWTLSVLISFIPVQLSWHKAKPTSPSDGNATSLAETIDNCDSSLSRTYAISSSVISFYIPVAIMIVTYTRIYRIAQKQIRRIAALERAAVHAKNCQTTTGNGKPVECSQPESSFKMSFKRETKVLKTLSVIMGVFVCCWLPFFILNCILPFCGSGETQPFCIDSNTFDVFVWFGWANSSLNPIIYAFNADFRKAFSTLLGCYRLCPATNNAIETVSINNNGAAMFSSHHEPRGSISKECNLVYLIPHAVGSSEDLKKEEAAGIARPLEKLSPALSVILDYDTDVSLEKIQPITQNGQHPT
Broadly, the Ki is the dissociation constant of the complex between target and ligand, obtained from inhibition or displacement. Low readings indicate a stronger hold on the target, high ones a looser hold on the target. For `CN1CCN(C2=Nc3cc(F)ccc3Cc3ccccc32)CC1`, the Ki was found to be 75 nM.

As to `OCCC1CCN(CCC=C2c3ccc(F)cc3Sc3ccc(C(F)(F)F)cc32)CC1` [CAS_60197-32-2], the Ki stood at 0.65 nM.

`O=C(O)c1ccccc1C(=O)Nc1cccc2ccccc12` [NPA,(+)] registered a Ki of 1540 nM.

The values above are taken from BindingDB's records for doi:10.1073/pnas.88.17.7491 (Duke University, 1991).
